Measurements as given in patent US5157019A, “Serine protease inhibitors” (Monsanto Company, priority 1991, dated 1992).
Bridge positions count the residues as written; N and C are the ends. Ends that are not written are not given here.

Key:
Type in all cases: biochemical
HUMAN SPUTUM ELASTASE = molecular target: T1, HUMAN SPUTUM ELASTASE (Homo sapiens, UniProt P08246); assay: Elastase assay (MeO-Suc-Ala-Pro-Val-pNA); details: 200 μM peptide
T1 construct: HUMAN SPUTUM ELASTASE; purchased Elastin Products Company SE563; host or cells: human sputum (from the product name)
T1 sequence (P08246 30-267): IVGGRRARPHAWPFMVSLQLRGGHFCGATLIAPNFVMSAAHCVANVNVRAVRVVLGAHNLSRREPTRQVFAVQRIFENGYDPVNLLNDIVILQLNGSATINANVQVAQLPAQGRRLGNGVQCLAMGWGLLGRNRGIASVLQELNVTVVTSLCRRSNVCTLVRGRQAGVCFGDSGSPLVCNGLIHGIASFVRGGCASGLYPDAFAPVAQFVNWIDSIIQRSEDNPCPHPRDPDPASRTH
Method: Enzyme used is "HUMAN SPUTUM ELASTASE®" which is an enzyme which is the target protease for α1 antitrypsin from Elastin Products Company, Catalog No. SE563, lot 85071, 875 units/mg as determined by supplier with N-Suc-Ala-Ala-Ala-pNA; prepared at 0.2 mg/mL in 0.1M Tris·HCl, pH 8.8 at 37 degrees C. An amount of enzyme is used to give approximately 0.1 change in Absorbance/min; which in this assay was 1 μg.
The substrate is MeO-Suc-Ala-Pro-Val-pNA, Sigma Catalog No. M-4765. About 50 mg of the substrate is dissolved in 1 ml of 1-methyl-2-pyrrolidinone and diluted to 33 mls. with 0.1M Tris-HCl, pH 7.5, containing 0.5M NaCl, and 0.01 wt % sodium azide.
Peptide solutions are prepared at 500 μM, using 1.5% of the final volume of DMSO first and diluting with distilled water (DW) or 0.1M Tris.HCl, pH 8.8 at 37 degrees C. [formula]

Cathepsin G = molecular target: T2, Cathepsin G (Homo sapiens, UniProt P08311); assay: Cathepsin G assay (Suc-Ala-Ala-Pro-Phe-pNA, 410 nm); details: 200 μM peptide (head of Table IX)
T2 construct: purchased Elastin Products Company (EPC) SG-45
T2 sequence (P08311 21-255): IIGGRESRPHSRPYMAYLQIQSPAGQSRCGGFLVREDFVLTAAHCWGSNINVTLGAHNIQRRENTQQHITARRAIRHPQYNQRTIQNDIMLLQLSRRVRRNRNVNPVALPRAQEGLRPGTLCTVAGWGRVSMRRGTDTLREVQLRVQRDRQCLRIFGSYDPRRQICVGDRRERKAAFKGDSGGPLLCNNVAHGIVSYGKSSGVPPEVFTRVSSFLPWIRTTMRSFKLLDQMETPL
Method: Reference: Elastin Products Company (EPC) technical data sheet, cathepsin G, No. SG-45.
Method: Spectrophotometric rate determination
A) Buffer; 0.1M Tris, pH 7.5 at 25° C.
B) Substrate; 60 mM Suc-Ala-Ala-Pro-Phe-pNA obtained from Sigma Chemical Company. Solution prepared by dissolving 50 mg substrate in 1.3 ml of 1-methyl-2-pyrrolidinone. Stored at 5° C.
C) Peptide Inhibitors; 200 μM HCl salt. Depending on peptide solubility, dissolved in buffer or DMSO and then buffer added for a final concentration of 10% DMSO.
D) Enzyme; Cathepsin G, EPC SG-45, lot 85117 used for all assays, 0.0077 mg protein per mg solid determined by supplier by Bradford method. Enzyme was dissolved in buffer at a concentration of approx. 5 mg/ml solid. Solution stored on ice, used within 2 hours.
Pipetted the following into semi-micro quartz cuvettes: 0.3 ml buffer, 0.15 ml peptide solution and 0.5 ml of substrate solution. Equilibrate for 5 min. at 25° C., then add 0.05 ml of enzyme solution and monitor the release of pNA spectrophotometrically at 410 nm for at least 3 minutes. The controls contain either 0.45 ml of buffer or 20% DMSO in buffer (for a final concentration of 10% DMSO).
The rate (O.D./min) is obtained as an average over 3 minutes. [formula]

Thrombin = Thrombin (Homo sapiens, UniProt P00734); assay: Coagulation inhibition assay, thrombin (fibrinogen clotting end point); details: 40 μM peptide
Method: Inhibitory activity of subject peptides toward thrombin and Factor Xa were done in the following manner. Mix 100 μL Thrombin (3.125 units/ml, 1.125 μg/ml) in TAB with […] Peptide in TAB and incubate for 1 minute at 37° C. Add 50 μL Fibrinogen (2 mg/ml)and measure clotting end point (in seconds) in a Fibrometer (BBL) TAB=Thrombin Assay Buffer: 0.15M NaCl, 6.6 gm/L PEG-6000, 0.01M Imidazole, 0.01 CaCl2, pH 7.4

tPA = molecular target: T3, tPA (Homo sapiens, UniProt P00750); assay: Tissue plasminogen activator (tPA) assay (S2288); details: for inhibition at 10 µM: 10 μM peptide
T3 construct: Enzyme tPA, 2 chain activity standard; purchased American Diagnostica, Inc. 116
Method: Substrate H-D-Ile-Pro-Arg-pNA·2HCl (S2288, Kabi), 10 mM in deionized water; may be frozen for future use.
Buffer 50 mM Tris·HCl, pH 7.4 containing 0.01% Tween 80.
Inhibitor […] in deionized water.
Enzyme tPA, 2 chain activity standard (Catalog #116, American Diagnostica, Inc.); stock solution=10 μL of original solution per mL in buffer.
Mix 200 μL of buffer, 200 μL of deionized water (control) or inhibitor solution and 40 μL of substrate solution. Incubate for 2 min. at 37° C., add 40 μL of enzyme, mix, and measure rate spectrophotometrically at 405 nm for about 5 min. Inhibition (%) is calculated in the same manner as in previous assays.

C1s = molecular target: T4, C1s (Homo sapiens, UniProt P09871); assay: C1s assay by inhibition of fluid phase C4 activation; details: Table X; μM concentration at which protease was inhibited 50%; read-out: IC50 C1S
T4 construct: prepared from pooled human plasma; from tissue; host or cells: pooled human plasma
T4 sequence (P09871 16-688): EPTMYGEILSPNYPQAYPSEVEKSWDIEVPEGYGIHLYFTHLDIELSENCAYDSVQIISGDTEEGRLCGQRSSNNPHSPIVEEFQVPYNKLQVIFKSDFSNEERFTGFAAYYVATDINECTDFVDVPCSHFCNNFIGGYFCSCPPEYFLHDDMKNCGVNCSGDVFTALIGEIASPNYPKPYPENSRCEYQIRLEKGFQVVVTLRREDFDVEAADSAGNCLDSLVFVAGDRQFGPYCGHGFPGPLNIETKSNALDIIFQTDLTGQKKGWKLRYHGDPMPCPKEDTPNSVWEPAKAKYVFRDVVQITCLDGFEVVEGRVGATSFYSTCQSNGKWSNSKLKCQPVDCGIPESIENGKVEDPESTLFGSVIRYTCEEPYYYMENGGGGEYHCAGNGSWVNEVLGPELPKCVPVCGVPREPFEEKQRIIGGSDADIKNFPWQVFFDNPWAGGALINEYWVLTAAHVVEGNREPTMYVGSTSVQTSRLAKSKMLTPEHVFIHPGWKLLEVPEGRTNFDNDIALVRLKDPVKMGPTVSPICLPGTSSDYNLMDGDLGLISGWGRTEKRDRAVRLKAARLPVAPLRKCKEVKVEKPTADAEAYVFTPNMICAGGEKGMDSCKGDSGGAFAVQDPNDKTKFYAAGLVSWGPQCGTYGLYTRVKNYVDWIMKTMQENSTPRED
Method: (§1) Highly purified C3, C4, Factor D, Factor B, and C1s were prepared from pooled human plasma. Factors B and C4 were radiolabeled by periodate oxidation of sialic acid residues, followed by reduction with tritiated sodium borohydride. In a representative experiment, a solution of 1.2 mg of factor B in 1.8 ml of PBS was treated with 70 μl of 0.1M NaIO4. After 10 min incubation on ice, excess reagent was removed by filtration over "SEPHADEX®" which is a matrix for gel chromatography (1.0 cm×20 cm). To the protein pool was added 60 μl of NaB[^3 H]4 solution and incubated for 30 min on ice. Labeled protein was separated from excess reagent by desalting or dialysis. Human C4 was radiolabeled in the same manner. Radiolabeled proteins were stored at -70° C. in PBS. The specific radioactivity of ^3 H factor B was about 10,000 CPM/μg and that of ^3 H-C4 was 5,000 CPM/μg.
The cleavage of C4 was studied by incubating 10 μg of tritiated C4 with 3-5 ng of C1s at 37° C. for 30 min in 100 μl of PBS (pH 7.10) containing different concentrations of inhibitor. The reaction was stopped by the addition of 2-mercaptoethanol. The extent of cleavage was analyzed by SDS-polyacrylamide gel electrophoresis. The stained bands corresponding to C4α and C4α' were cut out and sliced. The radioactivity of the fragments was measured by liquid scintillation counting. The percent cleavage of the reaction was calculated as follows: [formula]
(§2) Electrophoresis was carried out under reducing conditions in the Laemmli system using slab gel of 8% polyacrylamide. The gels were stained and destained (Fairbanks et al. Biochemistry (1971) 10:2606).
(§3) The percent inhibition of the reaction was calculated according to the following relationship: [formula]
(§4) A: % cleavage without inhibitor
(§5) B: % cleavage with inhibitor
(§6) The concentration inducing 50% inhibition was obtained by plotting the percent inhibition on a probability graph (National Blank Book Co., No. 12-083) on the ordinate and the log of the inhibitor concentration on the abscissa. From this graph, a 50% inhibition concentration IC50 was obtained and this value was employed to express the activity.

Factor D = molecular target: T5, Factor D (Homo sapiens, UniProt P00746); assay: Factor D assay by inhibition of fluid phase Factor B activation; details: Table X; μM concentration at which protease was inhibited 50%; read-out: IC50 D
T5 construct: prepared from pooled human plasma; from tissue; host or cells: pooled human plasma
Method: as §1
The effect of the peptides on Factor D-dependent cleavage of factor B was studied by incubating 3.5 μg of Factor B, 1.5 μg of C3(H2 O) and 0.2 μl of Factor D at 37° C. for 60 min in Mg-PBS containing different concentrations of inhibitor. Uncleaved Factor B and its fragments, Ba and Bb, were first separated by SDS-PAGE and analyzed as described above. The percent cleavage of the reaction was calculated as follows: [formula]
B=radioactivity (CPM) of uncleaved factor B
Bb=radioactivity (CPM) of fragment Bb
Ba=radioactivity (CPM) of fragment Ba
as §2, §3, §4, §5, §6

T3 sequence (P00750 311-562 limits assumed): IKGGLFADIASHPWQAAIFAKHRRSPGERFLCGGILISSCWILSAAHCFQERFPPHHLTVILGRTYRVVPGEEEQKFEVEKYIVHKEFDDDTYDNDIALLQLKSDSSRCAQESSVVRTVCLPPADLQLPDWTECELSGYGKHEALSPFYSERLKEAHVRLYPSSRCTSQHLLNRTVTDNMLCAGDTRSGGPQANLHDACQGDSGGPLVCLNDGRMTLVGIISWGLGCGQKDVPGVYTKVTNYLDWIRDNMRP
T3 sequence (P00750 36-310 partner limits assumed): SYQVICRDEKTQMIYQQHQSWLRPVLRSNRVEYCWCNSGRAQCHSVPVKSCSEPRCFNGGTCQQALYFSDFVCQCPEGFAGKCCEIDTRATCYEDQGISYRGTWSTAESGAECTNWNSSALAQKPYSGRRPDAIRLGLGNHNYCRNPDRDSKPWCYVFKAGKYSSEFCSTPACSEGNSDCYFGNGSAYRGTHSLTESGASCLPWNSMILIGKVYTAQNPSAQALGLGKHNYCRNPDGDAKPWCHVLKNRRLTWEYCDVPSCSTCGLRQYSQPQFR
T5 sequence (P00746 26-253): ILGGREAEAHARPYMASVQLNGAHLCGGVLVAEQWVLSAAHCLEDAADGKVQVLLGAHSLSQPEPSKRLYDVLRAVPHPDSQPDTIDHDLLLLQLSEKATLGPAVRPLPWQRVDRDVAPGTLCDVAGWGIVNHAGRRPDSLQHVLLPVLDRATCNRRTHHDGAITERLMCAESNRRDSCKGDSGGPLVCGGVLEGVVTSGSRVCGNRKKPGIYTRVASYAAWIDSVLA

Sequence | Elastase Inhibition (HUMAN SPUTUM ELASTASE) [%] | Cathepsin G Inhibition (Cathepsin G) [%] | other results
AGRSLNPNRTIVRFNRPFLLII [Peptide 11] |  |  | inhibition at 200 µM (HUMAN SPUTUM ELASTASE): 15%; inhibition at 200 µM (Cathepsin G): 40%; inhibition at 40 µM (Thrombin): 81%
FLEAIPMSIPPEVKFNKPFVFLI [Peptide 4] |  |  | inhibition at 200 µM (HUMAN SPUTUM ELASTASE): 70%; inhibition at 200 µM (Cathepsin G): 14%
FLEAIPMSIPPEVKFNKPFVFLLIEQNTKSPLFLGKVVNPTQK [Peptide 24] | 26 | 0 | 
FLEAIPMSIPPIVRFNRPFLLII [Peptide 19] | 100 |  | 
FLEAIPMSIPPTFKANRPFLVFI [Peptide 8] | 77 | 44 | Thrombin inhibition (Thrombin): 30%
FLEAIPMSIRTIVRFNRPFLLII [Peptide 12] | 0 | 51 | 
IAGRSLNPNPPEVKFKNPFVFLI [Peptide 5] | 0 | 0 | 
IAGRSLNPNRVTFKANRPFCVFIREVPLNTIIFLGCVANPAVK (disulfide 20-36) [Peptide 45] |  |  | inhibition at 20 µM (tPA; 20 μM peptide): 69%
IAGRSLNPNRVTVKFNKPFVFLLIEQNTKSPLFLGKVVNPTQK [Peptide 25] | 0 | 35 | 
IDGRIVEGSRVTFKANRPFLVFI [Peptide 18] |  |  | IC50 (C1s): 40 µM; IC50 (Factor D): 43 µM
LQRALEILRVTFKANRPFLVFI [Peptide 14] |  |  | IC50 (C1s): 9 µM; IC50 (Factor D): 8 µM
PFLVFILPNIFLGRVAN [Peptide 43] |  |  | inhibition at 10 µM (tPA): 7%
RPFLVFILPGIFLGRVANP [Peptide 38] |  |  | inhibition at 10 µM (tPA): 59%
RPFLVFILPNIFLGRVAN [Peptide 42] |  |  | inhibition at 10 µM (tPA): 44%
RPFLVFILPNIFLGRVANP [Peptide 39] |  |  | inhibition at 10 µM (tPA): 55%
RPFLVFILPNIFLRVANP [Peptide 44] |  |  | inhibition at 10 µM (tPA): 55%
RPFLVFIRPGDIFLGRVANP [Peptide 40] |  |  | inhibition at 10 µM (tPA): 39%
RPFLVFIRPNDFLGRVANP [Peptide 41] |  |  | inhibition at 10 µM (tPA): 8%
RPFLVFLPNILRVANP [Peptide 46] |  |  | inhibition at 10 µM (tPA): 0%
TLLSALVETPPEVKFKNPFVFLI [Peptide 6] | 17 | 0 | 
TLLSALVETRTIVRFNRPFLLII [Peptide 10] | 0 | 65 | 
TLLSALVETRVTFKANRPFLVFI [Peptide 9] |  | 41 | Thrombin inhibition (Thrombin): 32%

Further lines, with some results ahead:

Elastase Inhibition (HUMAN SPUTUM ELASTASE) [%] | Cathepsin G Inhibition (Cathepsin G) [%] | Sequence | other results
0 | 0 | FLEAIPMSIPPIVRFNRPFLLIIVPTDTQNIFFLSKVTNPSKPR [Peptide 32] | 
0 | 16 | FLEAIPMSIPPRVTFKANRPFLVFIREVPLNTIIFLGRVANP [Peptide 28] | 
0 | 54 | IAGRSLNPNIVRFNRPFLLIIVPTDTQNIFFLSKVTNPSKPR [Peptide 31] | 
0 | 35 | IAGRSLNPNRVTLRYNKPFILVLFETPGNSLVFLGRISNPATK [Peptide 33] | 
 | 0 | TLLSALVETRTIVKFNKPFVFLLIEQNTKSPLFLGKVVNPTQK [Peptide 26] | 
 | 38 | TLLSALVETRTIVRFNRPFLLIIVPTDTQNIFFLSKVTNPSKPR [Peptide 30] | 
